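These data come from cells grown in 96-well plates and exposed to compound for 48 hours at five concentrations. GI50 is the concentration that inhibits growth by half.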 Calls of active or inactive are those of the source. Rule as the data show it: active = GI50 up to about 1.1 µM and inactive = higher.
Tests used:
Assay in all cases: NCI tumour cell line growth inhibition, 48 h
UACC-62 = test system: UACC-62
SK-MEL-2 = test system: SK-MEL-2
UACC-257 = test system: UACC-257
M14 = test system: M14
OVCAR-4 = test system: OVCAR-4
KM12 = test system: KM12
HL-60 = test system: HL-60
K562 = test system: K562
NCI-H226 = test system: NCI-H226
IGROV-1 = test system: IGROV-1
NCI-H23 = test system: NCI-H23
MOLT-4 = test system: MOLT-4
NCI-H522 = test system: NCI-H522
DLD-1 = test system: DLD-1
LOX IMVI = test system: LOX IMVI
NCI/ADR-RES = test system: NCI/ADR-RES
MDA-N = test system: MDA-N
BT-549 = test system: BT-549
DU-145 = test system: DU-145
T47D = test system: T47D

| SMILES | GI50 (UACC-62) | GI50 (SK-MEL-2) | GI50 (UACC-257) | GI50 (M14) | GI50 (OVCAR-4) | GI50 (KM12) | GI50 (HL-60) | GI50 (K562) | GI50 (NCI-H226) | GI50 (IGROV-1) | GI50 (NCI-H23) | GI50 (MOLT-4) | GI50 (NCI-H522) | GI50 (DLD-1) | GI50 (LOX IMVI) | GI50 (NCI/ADR-RES) | GI50 (MDA-N) | GI50 (BT-549) | GI50 (DU-145) | GI50 (T47D) |
| --- | --- | --- | --- | --- | --- | --- | --- | --- | --- | --- | --- | --- | --- | --- | --- | --- | --- | --- | --- | --- |
| COc1ccccc1-n1c(NN)nc2ccc(Br)cc2c1=O | 36.6 µM (inactive) | 44.4 µM (inactive) | 24.4 µM (inactive) | 40.6 µM (inactive) | > 100 µM (inactive) | 38.6 µM (inactive) | 21.3 µM (inactive) | 35.6 µM (inactive) | 31 µM (inactive) | 38.2 µM (inactive) | 28.1 µM (inactive) | 26.2 µM (inactive) | 16.9 µM (inactive) | 34.8 µM (inactive) | 27.9 µM (inactive) |  |  |  |  |  |
| COC1OC(CO)C(O)C(OC(C)=O)C1NC(=O)N(CCCl)N=O (configuration not stated) | 24.8 µM (inactive) | 0.0112 µM (active) | > 100 µM (inactive) | > 100 µM (inactive) | > 100 µM (inactive) | > 100 µM (inactive) | 3.52 µM (inactive) | > 100 µM (inactive) | > 100 µM (inactive) | > 100 µM (inactive) | > 100 µM (inactive) | 95.9 µM (inactive) | > 100 µM (inactive) | > 100 µM (inactive) | 55 µM (inactive) |  |  |  |  |  |
| BrC1=CC=C2NCCCCCC/N=C3\C=CC(Br)=CC=C3NCCCCCC/N=C\2C=C1 | > 25.5 µM (inactive) | > 25.5 µM (inactive) | > 25.5 µM (inactive) | > 25.5 µM (inactive) | > 25.5 µM (inactive) | > 25.5 µM (inactive) | > 25.5 µM (inactive) | > 25.5 µM (inactive) | > 25.5 µM (inactive) | > 25.5 µM (inactive) | > 25.5 µM (inactive) | > 25.5 µM (inactive) | > 25.5 µM (inactive) | > 25.5 µM (inactive) | > 25.5 µM (inactive) |  |  |  |  |  |
| C[C@]12CCc3nonc3C1CC[C@@H]1C2CC[C@]2(C)C(=O)/C(=N\O)CC12 (some centres not stated) | > 100 µM (inactive) | > 100 µM (inactive) | > 100 µM (inactive) | > 100 µM (inactive) | 48.2 µM (inactive) | > 100 µM (inactive) | 1.03 µM (active) | > 100 µM (inactive) | > 100 µM (inactive) | > 100 µM (inactive) | > 100 µM (inactive) | > 100 µM (inactive) | 4.66 µM (inactive) | > 100 µM (inactive) | 46 µM (inactive) |  |  |  |  |  |
| CCCCOC(=O)C1C2CCC(O2)C1C(=O)OCCCC (configuration not stated) | > 100 µM (inactive) | > 100 µM (inactive) | > 55.1 µM (inactive) | > 52.1 µM (inactive) | > 87.1 µM (inactive) | > 100 µM (inactive) | > 100 µM (inactive) | > 100 µM (inactive) | > 100 µM (inactive) | > 100 µM (inactive) | > 100 µM (inactive) | > 83.4 µM (inactive) | > 100 µM (inactive) | > 53.7 µM (inactive) | > 44.8 µM (inactive) |  |  |  |  |  |
| Cc1cc2c(c3oc(C(O)(CO)C4CO4)cc(=O)c13)C(=O)c1c(O)cccc1C2=O (configuration not stated) | 0.00119 µM (active) | 0.00151 µM (active) | 0.00279 µM (active) | 0.00168 µM (active) | 0.00158 µM (active) | 0.00104 µM (active) | 0.000377 µM (active) | 0.000982 µM (active) | 0.00237 µM (active) | 0.000266 µM (active) |  | 0.000145 µM (active) | 0.0012 µM (active) | < 0.01 µM (active) | 0.000356 µM (active) | 1.29 nM (active) | 1.31 nM (active) | 0.00296 µM (active) | 0.552 nM (active) | 0.00163 µM (active) |
| Cc1cc(NC(=O)NC(=O)c2ccccc2[N+](=O)[O-])ccc1Oc1ncc(Cl)cn1 | 0.0551 µM (active) |  | 0.0431 µM (active) | 0.0782 µM (active) | 14.1 µM (inactive) | 0.0519 µM (active) | 0.0327 µM (active) | 0.037 µM (active) | 0.232 µM (active) | 0.51 µM (active) | 0.222 µM (active) | 0.0702 µM (active) | 0.0402 µM (active) | 0.0783 µM (active) | 0.133 µM (active) |  | < 10 nM (active) | 29.4 µM (inactive) | 1810 nM (inactive) | 34.1 µM (inactive) |
